According to PMC2477751 (International journal of experimental diabetes research, 2000):
Entries after “also recorded” stand apart in the source; their conditions may differ. Read-outs that look alike come from different tables or passages of the source.

How the values were obtained:
[1] = test system: serum insulin-like growth factor I (IGF-I); assay: Serum IGF-I (RIA after acid-methanol extraction) after subcutaneous octreotide injection; type: in vivo, rat
[2] = test system: serum growth hormone (GH); assay: Serum rat growth hormone (RIA) after subcutaneous octreotide injection; type: in vivo
[3] = test system: hypoxia-induced retinal neovascularization; assay: Neonatal rat retinopathy (ROP) model, alternating hypoxia/hyperoxia, histologic scoring of eyes; type: in vivo
Description: We evaluated its effect on retinal neovascularization in vivo, using a neonatal rat retinopathy model. Methods: We used, on alternating days, hypoxia (10% O2) and hyperoxia (50% O2) during the first 14 days of neonatal rats, to induce retinal neovascularization. […] At day 18 the eyes were evaluated for the presence of epiretinal and vitreal hemorrhage, neovascularization and epiretinal proliferation.
Int. Jnl. Experimental Diab. Res., Vol. 1, pp. 39-47 Reprints available directly from the publisher Photocopying permitted by license only (C) 2000 OPA (Overseas Publishers Association) N.V. Published by license under the Harwood Academic Publishers imprint, part of The Gordon and Breach Publishing Group. Printed in Malaysia. […] We evaluated its effect on retinal neo- vascularization in vivo, using a neonatal rat retino- pathy model. Methods: We used, on alternating days, hypoxia (10%O2) and hyperoxia (50%02) during the first 14 days of neonatal rats, to induce retinal neovascu- larization. […] At day 18 the eyes were evaluated for the presence of epiretinal and vitreal hemorrhage, neovasculariza- tion and epiretinal proliferation. […] Keywords: Retinopathy of prematurity, angiogenesis, insulin- like growth factor, growth hormone, neovascularization INTRODUCTION Retinal neovascularization is a common feature of several eye diseases characterized by retinal hypoxia, such as proliferative diabetic retino- pathy (PDR) and retinopathy of prematurity (ROP). While the underlying pathology may be different in these conditions, the neovascular pro- cess itself leads to destruction of normal retina and eventually causes blindness. *Corresponding author. Department of Ophthalmology, Hadassah University Hospital, P. O. Box 12000, Jerusalem 91120, Israel. Tel.: +972-2-677 6927, Fax: +972-2-643 4434, e-maih edward@md2.huji.ac.il 39 40 E. AVERBUKH et al. Growth hormone (GH) and insulin-like growth factor I (IGF-I) have been implicated in the pathogenesis of PDR (Lundbaek et al., 1970; Dills et al., 1991). […] High vitre- ous levels of IGF-I and IGF binding proteins (IGFBPs) were found in patients with neovas- cular eye disease related to diabetes and to other ischemic retinal conditions (Meyer-Schwickerath et al., 1993). In addition, a recent study demon- strated the essential role of GH and IGF-I in the development of retinal neovascularization in the ROP model in mice (Smith et al., 1997). Decades ago, before the advent of lasers, elimination of GH production by pituitary ablation was an accepted therapy for PDR (Bradley, Rees and Fager, 1965). […] METHODS Animals Fifty-six neonatal Sabra rats (provided by the Harlan Laboratories, Jerusalem, Israel) were divided into experimental groups of eight to ten animals from mixed litters, not divided ac- cording to gender. At the age of one day the group with the lactating mother were placed in an incubator with a controlled oxygen con- centration. […] All the animals were maintained and treated in ac- cordance with the Association for Research in Vision and Ophthalmology statement on the use of animals in ophthalmic and vision re- search. Retinal neovascularization was induced by alternating oxygen concentrations as pre- viously described (Reynaud and Dorey, 1994; Penn, Tolman and Lowery, 1993). Briefly, the animals were exposed on alternating days to hypoxia (10% O2-24h) and hyperoxia (50% O2-24h) during their first 14 days, followed by four days in room air. Hypoxia was produced by mixing air with nitrogen, and hyperoxia by mixing air with oxygen. A minimal flow of two liters per minute was maintained. […] At day 18 the rats were anesthetized with ether and sacrificed. The eyes were enu- cleated and placed in formaldehyde. […] These areas are prone to ischemia when the oxygen level is lowered.

[4] = set-up: method as in Bauer et al., 1982; details: ref Bauer et al., 1982; cited from earlier work
Source text: Int. Jnl. Experimental Diab. Res., Vol. 1, pp. 39-47 Reprints available directly from the publisher Photocopying permitted by license only (C) 2000 OPA (Overseas Publishers Association) N.V. Published by license under the Harwood Academic Publishers imprint, part of The Gordon and Breach Publishing Group. Printed in Malaysia.

[5] = Serum octreotide level (RIA) after subcutaneous injection in neonatal rats; details: Sabra, rat, sc
[6] = test system: human retinal endothelial cell (HREC); details: HREC stimulated by IGF-I and bFGF, ref Grant et al., 1993b, cited from earlier work
Source text: (§1) Int. Jnl. Experimental Diab. […] Printed in Malaysia.

[7] = test system: IGF-I mRNA, GH stimulated hepatocytes; details: ref Serri et al., 1992, cited from earlier work
Source text: as §1

[8] = stated for both the octreotide-treated and the control groups

C[C@@H](O)[C@@H]1NC(=O)[C@H](CCCCN)NC(=O)[C@@H](Cc2c[nH]c3ccccc23)NC(=O)[C@H](Cc2ccccc2)NC(=O)[C@@H](NC(=O)[C@H](N)Cc2ccccc2)CSSC[C@@H](C(=O)N[C@H](CO)[C@@H](C)O)NC1=O [octreotide]
Serum IGF-I level vs control group ([1]; 2 hours after injection): unchanged; also recorded: similar | Elevation of serum IGF-I level vs control group ([1]; 9 hours after injection, p 0.06): 19% | Elevation of serum IGF-I level vs control group ([1]; 14 hours after injection, p = 0.02): 26% | Serum GH level vs control group ([2]; 9 and 14 hours after injection): returned to baseline; also recorded: comparable | Decrease of serum GH level compared with saline injected animals ([2]; 2 hours after injection, p = 0.002): 40% | Effect of injections on retinal pathology ([3]; 0.7 μg/g BW s.c. twice daily, Mann-Whitney Rank Sum Test vs saline): no statistically significant effect | Eyes in which NV was found ([3]; octreotide-treated eyes, day 18 (control 27%)): 35% | Eyes affected by any of epiretinal and vitreal hemorrhages [3, 8]: ~70% | Eyes affected by epiretinal or by vitreal hemorrhages, each one of them [3, 8]: approximately 45% | Eyes affected by PVR ([3]; stated for each group): less than 40% | Retinal neovascularization ([3]; twice-daily injections, neonatal rat ROP model): not inhibited | Plasma half-life [4]: 1.5 h | half-life ([5]; 0.7 μg/g BW): 1.63 h | level at 9 h ([5]; 20 ug): 26.4 ng/mL | level at 14 h ([5]; 20 ug): 3.2 ng/mL | Inhibition of [3H]thymidine incorporation ([6]; octreotide level 1.6 μg/l): 15% | Inhibition of [3H]thymidine incorporation ([6]; octreotide level 16 μg/l): 35% | Inhibition of [3H]thymidine incorporation ([6]; octreotide level 164 μg/l): 60% | IGF-I mRNA abundance in cultured GH stimulated hepatocytes ([7]; high concentrations of octreotide (30 and 300 μg/l)): no effect | IGF-I mRNA levels in cultured GH stimulated hepatocytes ([7]; low octreotide concentrations (0.3 and 3 μg/l)): significantly reduced
